Results from US9676715B2, “Bis-indolic derivatives, a process for preparing the same and their uses as a drug” (UNIVERSITE JOSEPH FOURIER, priority 2011, dated 2017).
In brackets after ≈: the same amount, converted by molar mass.

Tests used:
[1] = system: S. epidermidis CIP 81.55; test: MIC, microdilution method (9.1); type: cell-based, Staphylococcus epidermidis; conditions: Staphylococcus epidermidis, CIP81, read after 18 h, read-out: MIC
In short: (§1)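 Standard CLSI broth microdilution. Test range 0.50-128 mg/L (final), doubling steps.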

[2] = system: S. epidermidis CIP 103627; test: MIC, microdilution method (9.1); type: cell-based, Staphylococcus epidermidis; conditions: Staphylococcus epidermidis, CIP103627, read after 18 h, read-out: MIC
In short: as §1

[3] = system: S. epidermidis ATCC 12228; test: MIC, microdilution method (9.1); type: cell-based, Staphylococcus epidermidis; conditions: Staphylococcus epidermidis, ATCC12228, read after 18 h, read-out: MIC
In short: as §1

[4] = system: S. mitis CIP 103335; test: MIC, microdilution method (9.1); type: cell-based, Streptococcus mitis; conditions: Streptococcus mitis, CIP103335, 18 h, read-out: MIC
In short: as §1

[5] = system: KB (human mouth carcinoma); test: In vitro cytotoxicity; type: cell-based; conditions: read-out: % of cellular growth inhibition; for inhibition at 10 µM: 10^−5 M; for inhibition at 1 µM: 10^−6 M
Procedure: (§2) In vitro cytotoxicity was assayed on three cell lines—KB (human mouth carcinoma), MCR5 (human lung fibroblast) and HCT116 (human colon tumor). Results are presented in table IV as % of cellular growth inhibition in presence of 10^−5 M and 10^−6 M of the tested bis-indolic derivatives.

[6] = system: HCT116 (human colon tumor); test: In vitro cytotoxicity; type: cell-based; conditions: read-out: % of cellular growth inhibition; for inhibition at 10 µM: HCT-116, 10^−5 M; for inhibition at 1 µM: HCT-116, 10^−6 M
Procedure: as §2

[7] = system: MRC5 (human lung fibroblast); test: In vitro cytotoxicity; type: cell-based; conditions: read-out: % of cellular growth inhibition; for inhibition at 10 µM: 10^−5 M; for inhibition at 1 µM: 10^−6 M
Procedure: as §2

[8] = system: Acinetobacter baumanii ATCC 19606; test: MIC, microdilution method (9.1); type: cell-based; conditions: Acinetobacter baumannii, ATCC19606, 18 h, read-out: MIC
In short: as §1

[9] = system: Serratia marcescens CIP 103551; test: MIC, microdilution method (9.1); type: cell-based; conditions: CIP103551, 18 h
In short: as §1

[10] = system: Escherichia coli ATCC 25922; test: MIC, microdilution method (9.1); type: cell-based; conditions: ATCC25922, 18 h
In short: as §1

[11] = system: Pseudomonas aeruginosa CIP 5933; test: MIC, microdilution method (9.1); type: cell-based; conditions: CIP5933, 18 h, read-out: MIC
In short: as §1

[12] = system: Listeria innocua CIP 80.11; test: MIC, microdilution method (9.1); type: cell-based; conditions: CIP80, 18 h, read-out: MIC
In short: as §1

[13] = system: Bacillus subtilis CIP 5262; test: MIC, microdilution method (9.1); type: cell-based; conditions: CIP5262, 18 h, read-out: MIC
In short: as §1

[14] = system: Haemophilus influenzae ATCC 49766; test: MIC, microdilution method (9.1); type: cell-based; conditions: ATCC49766; Haemophilus influenzae ATCC 49766; 10% sheep blood, 5% CO2; 18 h; read-out: MIC
In short: (§3)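 Broth microdilution per CLSI M07-A8 in Mueller Hinton broth, final inoculum 5×10^5 CFU/ml. Indolic compounds tested as two-fold serial dilutions, 0.50-128 mg/L final. Plates incubated at 37° C. in ambient air; fastidious species received 10% sheep blood and 5% CO2.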

[15] = system: Enterobacter cloacae ATCC13047; test: MIC, microdilution method (9.1); type: cell-based; conditions: 18 h
In short: as §1

[16] = system: S. pneumoniae ATCC 49619; test: MIC, microdilution method (9.1); type: cell-based; conditions: Streptococcus pneumoniae, ATCC49619, 10% sheep blood, 5% CO2, 18 h
In short: as §3

[17] = system: Klebsiella pneumoniae API ATCC 35657; test: MIC, microdilution method (9.1); type: cell-based; conditions: ATCC35657, 18 h, read-out: MIC
In short: as §1

[18] = system: S. aureus CIP 103428; test: MIC, microdilution method (9.1); type: cell-based, Staphylococcus aureus; conditions: Staphylococcus aureus, CIP103428, read after 18 h, read-out: MIC
In short: as §1

[19] = system: S. aureus ATCC 29213; test: MIC, microdilution method (9.1); type: cell-based, Staphylococcus aureus; conditions: Staphylococcus aureus, ATCC29213, read after 18 h, read-out: MIC
In short: as §1

[20] = system: S. aureus CIP 65.6; test: MIC, microdilution method (9.1); type: cell-based, Staphylococcus aureus; conditions: Staphylococcus aureus, CIP65, read after 18 h, read-out: MIC
In short: as §1

[21] = system: S. aureus ATCC 33592 (MRSA); test: MIC, microdilution method (9.1); type: cell-based, Staphylococcus aureus; conditions: Staphylococcus aureus, read after 18 h, read-out: MIC
In short: as §1

[22] = system: S. aureus CIP 65.25 (MRSA); test: MIC, microdilution method (9.1); type: cell-based, Staphylococcus aureus; conditions: Staphylococcus aureus, read after 18 h, read-out: MIC
In short: as §1

[23] = system: S. aureus ATCC 6538; test: MIC, microdilution method (9.1); type: cell-based, Staphylococcus aureus; conditions: Staphylococcus aureus, ATCC6538, read after 18 h, read-out: MIC
In short: as §1

[24] = system: S. aureus ATCC 106414 (VISA); test: MIC, microdilution method (9.1); type: cell-based, Staphylococcus aureus; conditions: Staphylococcus aureus, read after 18 h, read-out: MIC
In short: as §1

[25] = system: E. faecium CIP 54.32; test: MIC, microdilution method (9.1); type: cell-based, Enterococcus faecium; conditions: Enterococcus faecium, CIP54, 18 h, read-out: MIC
In short: as §1

[26] = system: S. pneumoniae ATCC 6303; test: MIC, microdilution method (9.1); type: cell-based, Streptococcus pneumoniae; conditions: Streptococcus pneumoniae, ATCC6303, 10% sheep blood, 5% CO2, 18 h, read-out: MIC
In short: as §3

[27] = system: E. faecalis ATCC 29212; test: MIC, microdilution method (9.1); type: cell-based, Enterococcus faecalis; conditions: Enterococcus faecalis, ATCC29212, 18 h, read-out: MIC
In short: as §1

[28] = system: S. pyogenes (group A) CIP 104226; test: MIC, microdilution method (9.1); type: cell-based, Streptococcus pyogenes; conditions: Streptococcus pyogenes, CIP104226, 18 h, read-out: MIC
In short: as §1

| Compound | MIC [1] [µg/mL] | MIC [2] [µg/mL] | MIC [3] [µg/mL] | MIC [4] [µg/mL] | inhibition at 10 µM [5] [%] | inhibition at 1 µM [5] [%] | inhibition at 10 µM [6] [%] | MIC [8] [µg/mL] | MIC [9] [µg/mL] | MIC [10] [µg/mL] | MIC [11] [µg/mL] | MIC [15] [µg/mL] | MIC [17] [µg/mL] | MIC [18] [µg/mL] | MIC [19] [µg/mL] | MIC [20] [µg/mL] | MIC [21] [µg/mL] | MIC [22] [µg/mL] | MIC [23] [µg/mL] | MIC [24] [µg/mL] | further results |
| --- | --- | --- | --- | --- | --- | --- | --- | --- | --- | --- | --- | --- | --- | --- | --- | --- | --- | --- | --- | --- | --- |
| Cn1cc(C(=O)NC(CNC(=O)OC(C)(C)C)c2c[nH]c3ccc(Br)cc23)c2cc(Br)ccc21 (stereo not shown) [Compound 7, tert-Butyl (2-(5-bromo-1-methyl-1H-indole-3-carboxamido)-2-(5-bromo-1H-indol-3-yl)ethyl) carbamate] | > 128 | > 128 | > 128 | > 128 | 52 ± 2 | 2 | 35 ± 3 | > 128 | > 128 | > 128 | > 128 | > 128 | > 128 | > 128 | > 128 | > 128 | > 128 | > 128 | > 128 | > 128 | inhibition at 1 µM [6]: 8%; inhibition at 10 µM [7]: 23 ± 6%; inhibition at 1 µM [7]: 12%; MIC [12]: > 128 µg/mL; MIC [13]: > 128 µg/mL; MIC [14]: > 128 µg/mL; MIC [16]: > 128 µg/mL; MIC [25]: > 128 µg/mL; MIC [26]: > 128 µg/mL; MIC [27]: > 128 µg/mL; MIC [28]: > 128 µg/mL |
| NCCCCNC(=O)C(NC(=O)c1c[nH]c2ccc(Br)cc12)c1c[nH]c2ccc(Br)cc12 (stereo not shown) [Compound 16, N-(2-((4-Aminobutyl)amino)-1-(5-bromo-1H-indol-3-yl)-2-oxoethyl)-5-bromo-1H-indole-3-carboxamide] | 8 (≈ 14.3 µM) | 8 (≈ 14.3 µM) | 8 (≈ 14.3 µM) | > 128 |  |  |  | > 32 | > 32 | 16 (≈ 28.5 µM) | 32 (≈ 57 µM) | 16 (≈ 28.5 µM) | > 32 | 8 (≈ 14.3 µM) | 8 (≈ 14.3 µM) | 8 (≈ 14.3 µM) | 8 (≈ 14.3 µM) | 8 (≈ 14.3 µM) | 8 (≈ 14.3 µM) | 8 (≈ 14.3 µM) | MIC [12]: > 128 µg/mL; MIC [13]: > 128 µg/mL; MIC [14]: > 128 µg/mL; MIC [16]: > 128 µg/mL; MIC [25]: > 128 µg/mL; MIC [26]: > 128 µg/mL; MIC [27]: > 128 µg/mL; MIC [28]: > 128 µg/mL |
| CC(C)(C)OC(=O)NCC(NC(=O)c1c[nH]c2ccc(Br)cc12)c1c[nH]c2ccc(Br)cc12 (stereo not shown) [Compound 3f, tert-Butyl(2-(5-bromo-1H-indol-3-yl)-2-(5-bromo-1H-indolyl-3-carboxamido)ethyl)carbamate] | 2 (≈ 3.47 µM) | 1 (≈ 1.74 µM) | 1 (≈ 1.74 µM) | 64 (≈ 111 µM) | 97 ± 1 | 0 | 89 ± 9 | > 128 | > 128 | > 128 | > 128 | > 128 | > 128 | 1 (≈ 1.74 µM) | 1 (≈ 1.74 µM) | 1 (≈ 1.74 µM) | 2 (≈ 3.47 µM) | 2 (≈ 3.47 µM) | 1 (≈ 1.74 µM) | 2 (≈ 3.47 µM) | inhibition at 1 µM [6]: 0%; inhibition at 10 µM [7]: 91 ± 10%; inhibition at 1 µM [7]: 0%; MIC [12]: > 128 µg/mL; MIC [13]: 32 µg/mL (≈ 55.5 µM); MIC [14]: 32 µg/mL (≈ 55.5 µM); MIC [16]: 32 µg/mL (≈ 55.5 µM); MIC [25]: > 128 µg/mL; MIC [26]: 32 µg/mL (≈ 55.5 µM); MIC [27]: > 128 µg/mL; MIC [28]: 32 µg/mL (≈ 55.5 µM) |
| CC(NC(=O)c1c[nH]c2ccc(Br)cc12)c1c[nH]c2ccc(Br)cc12 (stereo not shown) [Compound 4, 5-Bromo-N-(1-(5-bromo-1H-indol-3-yl)ethyl)-1H-indole-3-carboxamide] | 2 (≈ 4.34 µM) | 4 (≈ 8.67 µM) | 2 (≈ 4.34 µM) |  | 13 ± 3 | 0 | 12 ± 1 | > 128 | > 128 | > 128 | > 128 | > 128 | > 128 | 2 (≈ 4.34 µM) | 2 (≈ 4.34 µM) | 2 (≈ 4.34 µM) | 2 (≈ 4.34 µM) | 2 (≈ 4.34 µM) | 2 (≈ 4.34 µM) | 2 (≈ 4.34 µM) | inhibition at 1 µM [6]: 0%; inhibition at 10 µM [7]: 36 ± 4%; inhibition at 1 µM [7]: 7% |
